# Laboratory results taken from paper PMC7973644, “Bioanalytical screening of low levels of dioxins and dioxin-like PCBs in pig meat (pork) for checking compliance with EU maximum and action levels using highly sensitive “third generation” recombinant H4L7.5c2 rat hepatoma cells” (Environmental Sciences Europe, 2021).
# What was measured:
# [1] = test system: aryl hydrocarbon receptor (AhR); set-up: method as in PMID 33614386, PMID 18969555, PMID 18969548; details: CALUX; relative to 2,3,7,8-TCDD; cited from earlier work
# [2] = target: T1, aryl hydrocarbon receptor (AhR) (Rattus norvegicus, UniProt P41738); assay: CALUX luciferase reporter bioassay, H4L1.1c4 rat hepatoma cells (4 DREs); type: cell-based; details: H4L1.1c4 rat (4 DREs)
# T1 construct: endogenous in cells; host or cells: H4L7.5c2, H4L1.1c4 and DR-CALUX (H4L1.1c10, H4IIe-based) recombinant rat hepatoma cells
# T1 sequence (P41738 10-853): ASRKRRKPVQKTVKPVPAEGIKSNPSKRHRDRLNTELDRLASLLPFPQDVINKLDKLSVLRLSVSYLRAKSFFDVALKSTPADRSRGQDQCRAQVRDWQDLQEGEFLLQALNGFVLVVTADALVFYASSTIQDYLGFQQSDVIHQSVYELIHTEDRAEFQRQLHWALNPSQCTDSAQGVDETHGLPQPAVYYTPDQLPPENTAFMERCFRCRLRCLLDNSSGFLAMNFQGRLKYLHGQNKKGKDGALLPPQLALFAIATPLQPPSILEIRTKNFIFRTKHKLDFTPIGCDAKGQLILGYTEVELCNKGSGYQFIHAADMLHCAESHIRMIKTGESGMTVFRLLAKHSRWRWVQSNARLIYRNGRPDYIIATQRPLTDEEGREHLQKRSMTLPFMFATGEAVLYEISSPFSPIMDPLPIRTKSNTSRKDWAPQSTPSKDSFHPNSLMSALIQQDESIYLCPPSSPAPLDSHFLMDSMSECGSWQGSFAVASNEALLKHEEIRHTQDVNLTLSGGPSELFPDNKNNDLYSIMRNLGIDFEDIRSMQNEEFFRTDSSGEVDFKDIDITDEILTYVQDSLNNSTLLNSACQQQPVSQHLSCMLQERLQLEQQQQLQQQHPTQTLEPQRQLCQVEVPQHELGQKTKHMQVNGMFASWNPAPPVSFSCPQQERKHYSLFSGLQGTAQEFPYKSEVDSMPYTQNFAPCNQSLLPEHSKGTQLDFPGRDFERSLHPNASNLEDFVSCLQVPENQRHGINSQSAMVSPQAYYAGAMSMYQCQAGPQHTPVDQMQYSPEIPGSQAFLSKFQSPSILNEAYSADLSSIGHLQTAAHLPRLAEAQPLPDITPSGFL
# Text: (§1) A “3rd generation” H4L7.5c2 recombinant rat hepatoma CALUX cell line that contains a stably transfected AhR-responsive firefly luciferase reporter gene under control of 20 dioxin responsive elements (DREs) was utilized in this study. […] H4L7.5c2 rat and other CALUX cell lines, such as H4L1.1c4 rat and […] mouse hepatoma cells (each with 4 DREs), or “3rd generation” H1L7.5c3 mouse hepatoma cells (20 DREs), are freely available for non-profit research purposes and can be obtained from Prof. Denison. These cells are also available for commercial and government screening purposes through a licensing agreement with the Hiyoshi Corporation, Omihachiman, Japan (www.calux-jp.com/english/).
# (§2) We compared both key indicators of assay performance, calibrator bias and imprecision, and the resulting working range for H4L7.5c2 rat hepatoma cells (this study) with those obtained using various other cell lines (4 DREs: H4L1.1c4 rat, DR-CALUX rat, H1L6.1c2 mouse hepatoma cells; 20 DREs: H1L7.5c3 mouse hepatoma cells) previously evaluated (Table 2). Commercially available DR-CALUX cells, a recombinant rat hepatoma (H4IIe)-based cell line (H4L1.1c10), were obtained from BioDetection Systems (The Netherlands). When using CALUX cell lines that contain 4 DREs, the lower limit of working range (LLOW), or the concentration above which results may be reported, is typically close to 1 pmol/L if both RLU-based and concentration-based criteria for bias and imprecision are fulfilled (assay working range B in Table 2). […] When utilizing H1L7.5c3 mouse hepatoma cells, which also contain 20 DREs, the LLOW equals 0.3 pmol/L, as well. However, the range in which assay concentrations match all criteria for bias and imprecision is smaller with an upper limit of working range (ULOW) of just 10 pmol/L. It follows that the “3rd generation” H4L7.5c2 rat hepatoma cells provide the most suitable working range of the assay for low sample concentrations, regardless of whether only the current EU RLU-based imprecision requirements are met or whether bias-related and concentration-based criteria are additionally observed (Table 2).
# (§3) While absolute induction is driven by the efficiency of gene expression, fold induction is the ratio between the cell response (RLU) induced by a calibration standard, or by AhR-active dioxin-like compounds present in a sample extract, and the unspecific assay background response (RLU). […] Furthermore, the Chi-square-to-degrees of freedom ratio (χ^2/DF, with χ^2 ~ WSSR) known to be a stand-alone index characterizing the quality of a model fit is provided for each cell line. […] The latter is the case for each cell line (Table 3). […] An explanation can be found in the fact that triplicate standard deviations were used as rough estimates.
# [3] = set-up: method as in PMID 15083163; details: adult humans; cited from earlier work
# [4] = target: T1, aryl hydrocarbon receptor (AhR); assay: DR-CALUX luciferase reporter bioassay, recombinant rat hepatoma (H4IIe)-based cells (4 DREs); type: cell-based; details: DR-CALUX rat (4 DREs)
# Text: as §2, §3
# [5] = target: T1, aryl hydrocarbon receptor (AhR); assay: CALUX luciferase reporter bioassay, H4L7.5c2 rat hepatoma cells (20 DREs); type: cell-based
# Text: as §1
# Exposure of H4L7.5c2 rat cells to dioxins, dioxin-like compounds, and other AhR agonists results in induction of luciferase reporter gene expression in a time-, concentration-, AhR-, and chemical-specific manner. The AhR signal transduction pathway in the CALUX bioassay and the molecular mechanism of activation of gene expression by 2,3,7,8-TCDD and related AhR agonists have been described in detail elsewhere. The level of luciferase expression in CALUX cell lines is directly related to the overall concentration of added AhR activators.
# H4L7.5c2 rat cells of defined sub-confluent density (60–70%) were harvested with trypsin and homogeneously suspended in cell culture medium (α-MEM) containing 10% (v/v) FBS. Cells were counted in a haemocytometer, then seeded in 96-well white clear bottom culture plates (Corning, New York, USA) at approximately 25,000 cells/well. After 1 h of pre-incubation at ambient conditions in a biosafety cabinet, the cells were grown for 20–24 h at 37 °C in the presence of 5% CO2.
# Individual concentrations of a 2,3,7,8-TCDD-standard dilution series (generating assay concentrations of 0.0, 0.1, 0.3, 1.0, 3.0, 10, 30, 300, and 3000 pmol/L) and the sample extracts (both in DMSO) were first added to incubation medium and mixed, and the mixtures subsequently added in triplicate to 96-well plates containing H4L7.5c2 cells. The ability of the bioassay target compounds to adhere to the walls and bottom of the wells can lead to cells in individual wells of a triplicate being dosed with slightly different amounts of AhR-active compounds, leading to increased triplicate RSD values. Well-to-well variability of the cell response also further depends on edge effects commonly observed across 96-well microplates. For a given cell system, inhomogeneous dosing of triplicates and edge effects are some of the main drivers for the assay working range, within which triplicate RSD values are subject to defined limitations (RSD < 15%). Especially, its bottom end should be as low as possible for the present application. Each batch of plates was therefore pre-tested for satisfactorily low and reproducible edge effects. The latter was further reduced by a 1 h pre-incubation under ambient conditions in the safety cabinet immediately after seeding the cells, resulting in an even distribution of the cells in each well. The plates were then placed in an incubator on a 1.5 mm-thin copper sheet on top of the incubator shelf. Copper not only has bactericidal properties, but being a fast heat conductor, it also helps to avoid the formation of patterns in the measured cell response (another type of "edge effects"), caused by temperature gradients near heat-radiating walls or by occasional opening of the incubator door. For preparing the dose media, we applied a validated, fast, and reproducible pipetting procedure followed by thorough re-mixing immediately before dosing the cells only into the inner 60 wells of 96-well plates. Cell culture medium was added to the cells in the 36 outer wells to maintain a balanced atmosphere above all wells allowing homogeneous evaporation rates across the plate during incubation. […]
# [6] = target: T2, aryl hydrocarbon receptor (AhR) (Mus musculus, UniProt P30561); assay: CALUX luciferase reporter bioassay, H1L6.1c2 mouse hepatoma cells (4 DREs); type: cell-based; details: H1L6.1c2 mouse (4 DREs)
# T2 sequence (P30561 10-848): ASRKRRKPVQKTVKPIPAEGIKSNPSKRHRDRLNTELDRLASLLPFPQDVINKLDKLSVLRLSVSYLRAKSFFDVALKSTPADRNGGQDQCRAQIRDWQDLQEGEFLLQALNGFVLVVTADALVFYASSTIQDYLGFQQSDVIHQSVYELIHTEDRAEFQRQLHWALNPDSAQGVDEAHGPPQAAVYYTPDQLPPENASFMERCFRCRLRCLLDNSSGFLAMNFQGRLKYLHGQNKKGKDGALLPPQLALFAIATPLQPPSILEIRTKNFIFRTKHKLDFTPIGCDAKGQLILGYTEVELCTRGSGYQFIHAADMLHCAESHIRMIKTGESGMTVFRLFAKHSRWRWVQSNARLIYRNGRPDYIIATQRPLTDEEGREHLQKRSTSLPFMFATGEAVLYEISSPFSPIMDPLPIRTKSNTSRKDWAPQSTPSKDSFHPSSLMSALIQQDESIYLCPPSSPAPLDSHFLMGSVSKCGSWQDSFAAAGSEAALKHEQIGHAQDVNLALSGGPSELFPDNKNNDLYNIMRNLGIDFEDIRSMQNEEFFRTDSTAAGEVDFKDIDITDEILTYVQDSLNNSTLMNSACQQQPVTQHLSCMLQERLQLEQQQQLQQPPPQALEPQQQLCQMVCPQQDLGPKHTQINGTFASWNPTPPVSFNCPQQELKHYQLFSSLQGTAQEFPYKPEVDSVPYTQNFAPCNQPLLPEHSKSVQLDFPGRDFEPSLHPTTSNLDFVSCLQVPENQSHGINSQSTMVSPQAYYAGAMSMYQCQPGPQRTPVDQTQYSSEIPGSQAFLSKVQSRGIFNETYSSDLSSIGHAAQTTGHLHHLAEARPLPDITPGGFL
# T2 sequence (P53762 2-791 partner): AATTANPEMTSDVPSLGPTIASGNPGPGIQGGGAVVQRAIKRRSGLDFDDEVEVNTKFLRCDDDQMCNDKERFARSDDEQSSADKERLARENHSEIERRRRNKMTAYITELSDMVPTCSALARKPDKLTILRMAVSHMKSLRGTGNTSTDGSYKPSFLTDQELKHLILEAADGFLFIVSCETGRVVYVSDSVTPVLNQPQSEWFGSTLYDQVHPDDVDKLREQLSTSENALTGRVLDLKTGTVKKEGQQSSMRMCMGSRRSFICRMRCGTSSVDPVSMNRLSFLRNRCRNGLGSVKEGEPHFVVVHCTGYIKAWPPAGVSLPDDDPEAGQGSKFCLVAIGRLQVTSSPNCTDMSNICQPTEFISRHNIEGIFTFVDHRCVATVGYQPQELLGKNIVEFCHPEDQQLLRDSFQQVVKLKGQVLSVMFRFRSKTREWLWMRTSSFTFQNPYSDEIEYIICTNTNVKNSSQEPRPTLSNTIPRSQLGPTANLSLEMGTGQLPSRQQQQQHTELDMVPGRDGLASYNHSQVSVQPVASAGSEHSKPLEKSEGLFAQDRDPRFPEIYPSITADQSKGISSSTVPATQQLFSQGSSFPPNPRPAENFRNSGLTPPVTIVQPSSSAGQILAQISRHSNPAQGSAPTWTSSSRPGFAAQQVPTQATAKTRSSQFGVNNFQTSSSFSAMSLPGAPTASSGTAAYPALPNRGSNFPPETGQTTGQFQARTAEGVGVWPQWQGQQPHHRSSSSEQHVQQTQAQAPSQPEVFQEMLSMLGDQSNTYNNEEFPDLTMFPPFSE
# Text: as §2, §3
# [7] = target: T2, aryl hydrocarbon receptor (AhR); assay: CALUX luciferase reporter bioassay, H1L7.5c3 mouse hepatoma cells (20 DREs); type: cell-based; details: H1L7.5c3 mouse (20 DREs)
# Text: as §1, §2, §3
# [8] = H4L7.5c2 rat (20 DREs), 5-PL fit by WSSR regression
smiles,measurement,setting,value
Clc1ccc(-c2cc(Cl)c(Cl)c(Cl)c2)cc1Cl [PCB 126],"Relative potency (REP) or response of the cell bioassay compared to the response to 2,3,7,8-TCDD",[1],approximately 40%
"Clc1cc2c(cc1Cl)Oc1cc(Cl)c(Cl)cc1O2 [2,3,7,8-TCDD, 2,3,7,8-tetrachlorodibenzo-p-dioxin]",Fold induction at 0.3 pmol/L,[2]; 0.3 pmol/L,1.33
same,Fold induction at 1.0 pmol/L,[2]; 1.0 pmol/L,2.44
same,Asymmetry factor (e),[2]; 5-PL fit,1.81
same,EC50,[2]; 5-PL fit by WSSR regression,0.00552 nM
same,EC70,[2]; 5-PL fit by WSSR regression,0.0198 nM
same,Inflection point (c),[2]; 5-PL fit by WSSR regression,3.67 pmol/L
same,Maximum fold induction,[2]; 5-PL fit by WSSR regression,20.6
same,Slope (b),[2]; Hill coefficient of 5-PL fit,0.90
same,half-life,[3],3 to 10 years
same,Fold induction at 0.3 pmol/L,[4]; 0.3 pmol/L,1.16
same,Fold induction at 1.0 pmol/L,[4]; 1.0 pmol/L,1.53
same,Asymmetry factor (e),[4]; 5-PL fit,0.63
same,EC50,[4]; 5-PL fit by WSSR regression,0.00789 nM
same,EC70,[4]; 5-PL fit by WSSR regression,0.014 nM
same,Inflection point (c),[4]; 5-PL fit by WSSR regression,12.0 pmol/L
same,Maximum fold induction,[4]; 5-PL fit by WSSR regression,8.75
same,Slope (b),[4]; Hill coefficient of 5-PL fit,1.70
same,Fold induction at 0.3 pmol/L,"[5]; H4L7.5c2 rat (20 DREs), 0.3 pmol/L",1.46
same,Fold induction at 1.0 pmol/L,"[5]; H4L7.5c2 rat (20 DREs), 1.0 pmol/L",4.47
same,Asymmetry factor (e),"[5]; H4L7.5c2 rat (20 DREs), 5-PL fit",1.51
same,EC50,[5]; [8],0.0114 nM
same,EC70,[5]; [8],0.0223 nM
same,Inflection point (c),[5]; [8],7.22 pmol/L
same,Maximum fold induction,[5]; [8],136
same,Slope (b),"[5]; H4L7.5c2 rat (20 DREs), Hill coefficient of 5-PL fit",1.17
same,Maximum response,"[5]; H4L7.5c2 rat hepatoma cells, corrected for the assay background response, 5-PL fit",4730 RLUs
same,Fold induction at 0.3 pmol/L,[6]; 0.3 pmol/L,1.12
same,Fold induction at 1.0 pmol/L,[6]; 1.0 pmol/L,1.56
same,Asymmetry factor (e),[6]; 5-PL fit,1.42
same,EC70,[6]; 5-PL fit by WSSR regression,0.0505 nM
same,Inflection point (c),[6]; 5-PL fit by WSSR regression,15.0 pmol/L
same,Maximum fold induction,[6]; 5-PL fit by WSSR regression,31.2
same,Slope (b),[6]; Hill coefficient of 5-PL fit,1.03
same,EC50,"[6]; H1L6.1c2 mouse hepatoma CALUX cells (4 DREs), 5-PL fit by WSSR regression",0.0235 nM
same,Fold induction at 0.3 pmol/L,[7]; 0.3 pmol/L,1.10
same,Fold induction at 1.0 pmol/L,[7]; 1.0 pmol/L,1.62
same,Asymmetry factor (e),[7]; 5-PL fit,1.15
same,EC70,[7]; 5-PL fit by WSSR regression,0.00921 nM
same,Inflection point (c),[7]; 5-PL fit by WSSR regression,4.63 pmol/L
same,Maximum fold induction,[7]; 5-PL fit by WSSR regression,10.5
same,Slope (b),[7]; Hill coefficient of 5-PL fit,1.48
same,EC50,"[7]; H1L7.5c3 mouse hepatoma CALUX cells (20 DREs), 5-PL fit by WSSR regression",0.00528 nM
